Assay results from patent publication US10414763B2 (CANCER RESEARCH TECHNOLOGY LIMITED, priority 2014, dated 2019).

Molecular target: T1, full-length human PKCι (Homo sapiens, UniProt P41743)
T1 construct: Recombinant, full-length human PKCι expressed in Sf21 insect cells is also commercially available; purchased EMD Millipore; host or cells: Sf21 insect cells (baculovirus)
T1 sequence (P41743 1-596): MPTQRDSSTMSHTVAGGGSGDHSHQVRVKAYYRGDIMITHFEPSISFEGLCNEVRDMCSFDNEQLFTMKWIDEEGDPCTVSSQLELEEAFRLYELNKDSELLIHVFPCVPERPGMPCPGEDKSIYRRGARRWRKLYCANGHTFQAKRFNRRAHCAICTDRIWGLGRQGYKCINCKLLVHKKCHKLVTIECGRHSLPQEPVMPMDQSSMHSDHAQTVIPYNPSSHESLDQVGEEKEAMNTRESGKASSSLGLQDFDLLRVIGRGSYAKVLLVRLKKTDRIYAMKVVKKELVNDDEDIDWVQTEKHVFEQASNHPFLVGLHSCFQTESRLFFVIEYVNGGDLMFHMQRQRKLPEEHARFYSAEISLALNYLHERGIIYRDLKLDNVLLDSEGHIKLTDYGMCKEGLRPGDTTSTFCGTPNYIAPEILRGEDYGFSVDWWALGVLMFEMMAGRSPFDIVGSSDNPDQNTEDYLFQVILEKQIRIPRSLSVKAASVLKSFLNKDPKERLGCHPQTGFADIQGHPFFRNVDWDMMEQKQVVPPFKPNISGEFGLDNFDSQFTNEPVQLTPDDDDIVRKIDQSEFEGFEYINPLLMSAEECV
Assay: PKCι IC50 IMAP fluorescence polarisation assay, full-length enzyme, 150 μM ATP
Type: biochemical
Conditions: read-out: IC50 in IMAP assay against full length PKCi at 150 μM ATP
In short: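 IMAP fluorescence polarisation kinase assay: 15 pM baculovirus-expressed human PKCiota with 100 nM FAM-pseudosubstrate peptide and 150 μM ATP, 1 h at 25 °C. IMAP detection reagent then 2 h at 25 °C before FP measurement. Inhibition referenced to no-compound and no-enzyme controls for IC50 fitting.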

SMILES	IC50 [nM]
CN(c1nc(-c2ccnc3[nH]c(-c4cccnc4)cc23)nc2cncc(C3CC3)c12)C1CCNCC1(C)C (stereo not shown) [Example 61, [5-Cyclopropyl-2-(2-pyridin-3-yl-1H-pyrrolo[2,3-b]pyridin-4-yl)-pyrido[3,4-d]pyrimidin-4-yl]-(3,3-dimethyl-piperidin-4-yl)-methyl-amine]	< 100
O=C(NC1CCCCC1)c1cc2c(-c3nc(N4CCNCC4)c4c(C5CC5)cncc4n3)ccnc2[nH]1 [Example 62, 4-(5-Cyclopropyl-4-piperazin-1-yl-pyrido[3,4-d]pyrimidin-2-yl)-1H-pyrrolo[2,3-b]pyridine-2-carboxylic acid cyclohexylamide]	< 100
FC(F)(F)c1cc2c(-c3nc(N4CCCC5NCCCC54)c4c(C5CC5)cncc4n3)ccnc2[nH]1 (stereo not shown) [Example 64, 5-Cyclopropyl-4-(octahydro-[1,5]naphthyridin-1-yl)-2-(2-trifluoromethyl-1H-pyrrolo[2,3-b]pyridin-4-yl)-pyrido[3,4-d]pyrimidine]	< 100
O=S(=O)(Nc1cc(-c2nc(N3CCNCC3)c3c(C4CC4)cncc3n2)ccn1)c1ccc(F)cc1 [Example 65, N-[4-(5-Cyclopropyl-4-piperazin-1-yl-pyrido[3,4-d]pyrimidin-2-yl)-pyridin-2-yl]-4-fluoro-benzenesulfonamide]	100 to 1000
CN(c1nc(-c2ccnc3[nH]c(C(=O)NC4CCCCC4)cc23)nc2cncc(C3CC3)c12)C1CCNCC1(C)C (stereo not shown) [Example 66, 4-{5-Cyclopropyl-4-[(3,3-dimethyl-piperidin-4-yl)-methyl-amino]-pyrido[3,4-d]pyrimidin-2-yl}-1H-pyrrolo[2,3-b]pyridine-2-carboxylic acid cyclohexylamide]	< 100
CC1(C)CNCCC1Nc1nc(-c2ccnc(Nc3ccc(F)cn3)c2)nc2cncc(C3CCC3)c12 (stereo not shown) [Example 67, {5-Cyclobutyl-2-[2-(5-fluoro-pyridin-2-ylamino)-pyridin-4-yl]-pyrido[3,4-d]pyrimidin-4-yl}-(3,3-dimethyl-piperidin-4-yl)-amine]	< 100
CC1(C)CNCCC1Nc1nc(-c2ccnc(Nc3ncc(F)cc3F)c2)nc2cncc(C3CCC3)c12 (stereo not shown) [Example 68, {5-Cyclobutyl-2-[2-(3,5-difluoro-pyridin-2-ylamino)-pyridin-4-yl]-pyrido[3,4-d]pyrimidin-4-yl}-(3,3-dimethyl-piperidin-4-yl)-amine]	< 100
CC1(C)CNCCC1Nc1nc(-c2ccnc(Nc3ncccc3F)c2)nc2cncc(C3CCC3)c12 (stereo not shown) [Example 70, {5-Cyclobutyl-2-[2-(3-fluoro-pyridin-2-ylamino)-pyridin-4-yl]-pyrido[3,4-d]pyrimidin-4-yl}-(3,3-dimethyl-piperidin-4-yl)-amine]	< 100
CC1(C)CNCCC1Nc1nc(-c2ccnc(Nc3nc(F)c(F)cc3F)c2)nc2cncc(C3CCC3)c12 (stereo not shown) [Example 71, {5-Cyclobutyl-2-[2-(3,5,6-trifluoro-pyridin-2-ylamino)-pyridin-4-yl]-pyrido[3,4-d]pyrimidin-4-yl}-(3,3-dimethyl-piperidin-4-yl)-amine]	< 100
CC(C)(C)c1csc(Nc2cc(-c3nc(NC4CCNCC4(C)C)c4c(C5CCC5)cncc4n3)ccn2)n1 (stereo not shown) [Example 72, {2-[2-(4-tert-Butyl-thiazol-2-ylamino)-pyridin-4-yl]-5-cyclobutyl-pyrido[3,4-d]pyrimidin-4-yl}-(3,3-dimethyl-piperidin-4-yl)-amine]	100 to 1000
OC1CNCCCC1Nc1nc(-c2ccnc3[nH]c4ccccc4c23)nc2cncc(C3CCC3)c12 (stereo not shown) [Example 73, 4-[5-Cyclobutyl-2-(9H-pyrido[2,3-b]indol-4-yl)-pyrido[3,4-d]pyrimidin-4-ylamino]-azepan-3-ol]	< 100
CN(c1nc(-c2ccnc3[nH]c4ccccc4c23)nc2cncc(C3CCC3)c12)C1CC(N)C1 (stereo not shown) [Example 74, N-[5-Cyclobutyl-2-(9H-pyrido[2,3-b]indol-4-yl)-pyrido[3,4-d]pyrimidin-4-yl]-N-methyl-cyclobutane-1,3-diamine]	< 100
CN(c1nc(-c2ccnc3[nH]c4ccccc4c23)nc2cncc(C3CCC3)c12)C1CC(N)C1 (stereo not shown) [Example 75, N-[5-Cyclobutyl-2-(9H-pyrido[2,3-b]indol-4-yl)-pyrido[3,4-d]pyrimidin-4-yl]-N-methyl-cyclobutane-1,3-diamine]	< 100
CN(c1nc(-c2ccnc3[nH]c4ccccc4c23)nc2cncc(C3CCC3)c12)C1CCC(N)C1 (stereo not shown) [Example 78, N-[5-Cyclobutyl-2-(9H-pyrido[2,3-b]indol-4-yl)-pyrido[3,4-d]pyrimidin-4-yl]-N-methyl-cyclopentane-1,3-diamine]	< 100
CNC(=O)c1cc2c(-c3nc(N4CCNCC4)c4c(C5CC5)cncc4n3)ccnc2[nH]1 [Example 79, 4-(5-Cyclopropyl-4-piperazin-1-yl-pyrido[3,4-d]pyrimidin-2-yl)-1H-pyrrolo[2,3-b]pyridine-2-carboxylic acid methylamide]	< 100
CC1(C)CNCCC1Nc1nc(-c2ccnc(Nc3ccc4ccccc4n3)c2)nc2cncc(C3CCC3)c12 (stereo not shown) [Example 86, {5-Cyclobutyl-2-[2-(quinolin-2-ylamino)-pyridin-4-yl]-pyrido[3,4-d]pyrimidin-4-yl}-(3,3-dimethyl-piperidin-4-yl)-amine]	< 100
CC1(C)CNCCC1Nc1nc(-c2ccnc(Nc3nc(F)cc(F)c3F)c2)nc2cncc(C3CCC3)c12 (stereo not shown) [Example 87, {5-Cyclobutyl-2-[2-(3,4,6-trifluoro-pyridin-2-ylamino)-pyridin-4-yl]-pyrido[3,4-d]pyrimidin-4-yl}-(3,3-dimethyl-piperidin-4-yl)-amine]	< 100
CC1(C)CNCCC1Nc1nc(-c2ccnc(Nc3ncc(Cl)cc3F)c2)nc2cncc(C3CCC3)c12 (stereo not shown) [Example 88, {2-[2-(5-Chloro-3-fluoro-pyridin-2-ylamino)-pyridin-4-yl]-5-cyclobutyl-pyrido[3,4-d]pyrimidin-4-yl}-(3,3-dimethyl-piperidin-4-yl)-amine]	< 100
CC1(C)CNCCC1Nc1nc(-c2ccnc(Nc3nccc4ccccc34)c2)nc2cncc(C3CCC3)c12 (stereo not shown) [Example 89, {5-Cyclobutyl-2-[2-(isoquinolin-1-ylamino)-pyridin-4-yl]-pyrido[3,4-d]pyrimidin-4-yl}-(3,3-dimethyl-piperidin-4-yl)-amine]	< 100
CC1(C)CNCCC1Nc1nc(-c2ccnc(Nc3ccc(OC(F)(F)F)cc3)c2)nc2cncc(C3CCC3)c12 (stereo not shown) [Example 90, {5-Cyclobutyl-2-[2-(4-trifluoromethoxy-phenylamino)-pyridin-4-yl]-pyrido[3,4-d]pyrimidin-4-yl}-(3,3-dimethyl-piperidin-4-yl)-amine]	100 to 1000
CC1(C)CNCCC1Nc1nc(-c2ccnc(Nc3ccccc3)c2)nc2cncc(C3CCC3)c12 (stereo not shown) [Example 91, [5-Cyclobutyl-2-(2-phenylamino-pyridin-4-yl)-pyrido[3,4-d]pyrimidin-4-yl]-(3,3-dimethyl-piperidin-4-yl)-amine]	< 100
CC1(C)CNCCC1Nc1nc(-c2ccnc(Nc3cccnc3F)c2)nc2cncc(C3CCC3)c12 (stereo not shown) [Example 92, {5-Cyclobutyl-2-[2-(2-fluoro-pyridin-3-ylamino)-pyridin-4-yl]-pyrido[3,4-d]pyrimidin-4-yl}-(3,3-dimethyl-piperidin-4-yl)-amine]	< 100
